Patent US9868772B2 (INDIANA UNIVERSITY RESEARCH AND TECHNOLOGY CORPORATION, priority 2012, dated 2018)
Numbered stars: 1 amine (or outer) side, 2 acyl side, 3 side chain; on linkers, the order of the positions; unused ones are H or OH. Square brackets hold non-standard residues; d marks the D form. Side chains are listed from the residue outwards. Peptide text beside a SMILES is read from it. * marks the point of attachment. γGlu = O=C(O)[C@H](CCC(=O)[*:2])N[*:1]; Desaminohistidyl = O=C(CCc1c[nH]cn1)*; Desaminotyrosyl = O=C(CCc1ccc(O)cc1)*; Palmitoyl = CCCCCCCCCCCCCCCC(=O)*; Sar = CNCC(=O)O

How the values were obtained:
Test in all cases: cAMP induction, firefly luciferase reporter assay in HEK293 cells co-transfected with receptor
Type in all cases: cell-based
[1] = target: T1, GLP-1 receptor (Homo sapiens, UniProt P43220)
T1 construct: expressed in transfected cells; host or cells: HEK293
T1 sequence (P43220 24-463): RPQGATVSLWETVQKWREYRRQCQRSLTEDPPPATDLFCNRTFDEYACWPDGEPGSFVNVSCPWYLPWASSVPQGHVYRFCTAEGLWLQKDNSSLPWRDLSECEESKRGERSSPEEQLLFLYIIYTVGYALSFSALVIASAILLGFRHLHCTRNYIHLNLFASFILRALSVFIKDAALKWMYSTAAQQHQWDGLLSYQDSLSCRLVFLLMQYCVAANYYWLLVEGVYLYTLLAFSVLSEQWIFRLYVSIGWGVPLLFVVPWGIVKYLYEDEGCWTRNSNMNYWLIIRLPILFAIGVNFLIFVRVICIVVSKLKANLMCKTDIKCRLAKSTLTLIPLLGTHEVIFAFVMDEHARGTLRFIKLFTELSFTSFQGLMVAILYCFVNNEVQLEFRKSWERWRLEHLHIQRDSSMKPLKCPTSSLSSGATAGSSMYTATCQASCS
Protocol: (§1) The ability of glucagon analogs to induce cAMP was measured in a firefly luciferase-based reporter assay. […] At the end of the incubation 100 microliters of LucLite luminescence substrate reagent (Perkin-Elmer, Wellesley, Mass.) were added to each well. […] Effective 50% concentrations were calculated by using Origin software (OriginLab, Northampton, Mass.

[2] = target: T2, GIP receptor (Homo sapiens, UniProt P48546)
T2 construct: expressed in transfected cells; host or cells: HEK293
T2 sequence (P48546 22-466): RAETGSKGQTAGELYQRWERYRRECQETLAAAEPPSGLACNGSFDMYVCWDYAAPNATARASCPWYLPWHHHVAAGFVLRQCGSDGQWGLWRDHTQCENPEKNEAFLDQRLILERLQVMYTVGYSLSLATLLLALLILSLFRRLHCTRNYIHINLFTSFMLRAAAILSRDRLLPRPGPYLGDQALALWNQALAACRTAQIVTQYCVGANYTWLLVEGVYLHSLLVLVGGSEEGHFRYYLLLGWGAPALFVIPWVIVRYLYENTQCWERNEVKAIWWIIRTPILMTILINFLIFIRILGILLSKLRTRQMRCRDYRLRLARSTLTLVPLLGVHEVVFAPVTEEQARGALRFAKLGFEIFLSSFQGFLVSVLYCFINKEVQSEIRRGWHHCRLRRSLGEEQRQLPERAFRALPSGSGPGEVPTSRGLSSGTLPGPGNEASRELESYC
Protocol: as §1

[3] = target: T3, glucagon receptor (Homo sapiens, UniProt P47871)
T3 construct: expressed in transfected cells; host or cells: HEK293
T3 sequence (P47871 26-477): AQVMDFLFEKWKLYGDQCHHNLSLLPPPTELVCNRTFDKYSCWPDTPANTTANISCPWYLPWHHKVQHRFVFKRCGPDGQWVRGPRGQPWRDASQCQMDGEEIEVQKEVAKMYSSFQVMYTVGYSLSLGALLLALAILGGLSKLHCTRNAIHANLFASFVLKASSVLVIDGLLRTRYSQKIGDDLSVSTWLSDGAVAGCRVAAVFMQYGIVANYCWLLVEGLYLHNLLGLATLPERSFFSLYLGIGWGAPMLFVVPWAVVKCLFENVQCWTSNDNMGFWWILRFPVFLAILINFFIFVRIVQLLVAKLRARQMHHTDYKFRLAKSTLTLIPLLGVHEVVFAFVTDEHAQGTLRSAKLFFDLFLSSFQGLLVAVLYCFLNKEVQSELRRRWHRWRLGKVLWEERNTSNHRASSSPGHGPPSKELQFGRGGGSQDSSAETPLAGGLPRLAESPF
Protocol: as §1

[4] = Table 2, analogs of SEQ ID NO: 10
[5] = Table 1, analogs of SEQ ID NO: 37
[6] = Table 3, analogs of SEQ ID NO: 12

SMILES | EC50 [1, 5] | EC50 [2, 5] | EC50 [3, 5] | further results
CCCCCCCCCCCCCCCC(=O)N[C@@H](CCC(=O)NCCCC[C@H](NC(=O)[C@H](CC(=O)O)NC(=O)[C@H](CO)NC(=O)[C@@H](NC(=O)[C@H](Cc1ccccc1)NC(=O)[C@@H](NC(=O)CNC(=O)[C@H](CCC(N)=O)NC(=O)[C@H](C)NC(=O)[C@@H](Cc1c[nH]cn1)NC(C)=O)[C@@H](C)O)[C@@H](C)O)C(=O)N[C@@H](CO)C(=O)N[C@@H](CCCCN)C(=O)N[C@@H](Cc1ccc(O)cc1)C(=O)N[C@@H](CC(C)C)C(=O)N[C@@H](CC(=O)O)C(=O)N[C@@H](CCC(=O)O)C(=O)N[C@@H](CCCNC(=N)N)C(=O)N[C@@H](C)C(=O)N[C@@H](C)C(=O)N[C@@H](CCC(N)=O)C(=O)N[C@@H](CC(=O)O)C(=O)N[C@@H](Cc1ccccc1)C(=O)N[C@H](C(=O)N[C@@H](CCC(N)=O)C(=O)N[C@@H](Cc1c[nH]c2ccccc12)C(=O)N[C@@H](CC(C)C)C(=O)N[C@@H](CC(C)C)C(=O)N[C@@H](CCC(=O)O)C(=O)N[C@@H](C)C(=O)NCC(=O)N1CCC[C@H]1C(=O)N[C@@H](CO)C(=O)N[C@@H](CO)C(=O)NCC(=O)N[C@@H](C)C(=O)N1CCC[C@H]1C(=O)N1CCC[C@H]1C(=O)N1CCC[C@H]1C(=O)N[C@@H](CO)C(N)=O)C(C)C)C(=O)O [compound 151] (Ac-[dH]AQGTFTSDK([γGlu-Palmitoyl])SKYLDERAAQDFVQWLLEAGPSSGAPPPS-NH2) | – | – | – | EC50 [1, 4]: 2 pM; EC50 [2, 4]: 14 pM; EC50 [3, 4]: 3 pM
CCCCCCCCCCCCCCCC(=O)N[C@@H](CCC(=O)NCCCC[C@H](NC(=O)[C@H](CC(=O)O)NC(=O)[C@H](CO)NC(=O)[C@@H](NC(=O)[C@H](Cc1ccccc1)NC(=O)[C@@H](NC(=O)CNC(=O)[C@H](CCC(N)=O)NC(=O)[C@H](C)NC(=O)CCc1ccc(O)cc1)[C@@H](C)O)[C@@H](C)O)C(=O)N[C@@H](CO)C(=O)N[C@@H](CCCCN)C(=O)N[C@@H](Cc1ccc(O)cc1)C(=O)N[C@@H](CC(C)C)C(=O)N[C@@H](CC(=O)O)C(=O)N[C@@H](CCC(=O)O)C(=O)N[C@@H](CCCNC(=N)N)C(=O)N[C@@H](C)C(=O)N[C@@H](C)C(=O)N[C@@H](CCC(N)=O)C(=O)N[C@@H](CC(=O)O)C(=O)N[C@@H](Cc1ccccc1)C(=O)N[C@H](C(=O)N[C@@H](CCC(N)=O)C(=O)N[C@@H](Cc1c[nH]c2ccccc12)C(=O)N[C@@H](CC(C)C)C(=O)N[C@@H](CC(C)C)C(=O)N[C@@H](CCC(=O)O)C(=O)NCC(=O)NCC(=O)N1CCC[C@H]1C(=O)N[C@@H](CO)C(=O)N[C@@H](CO)C(=O)NCC(=O)N[C@@H](C)C(=O)N1CCC[C@H]1C(=O)N1CCC[C@H]1C(=O)N1CCC[C@H]1C(=O)N[C@@H](CO)C(N)=O)C(C)C)C(=O)O [compound 11] (Desaminotyrosyl-AQGTFTSDK([γGlu-Palmitoyl])SKYLDERAAQDFVQWLLEGGPSSGAPPPS-NH2) | 2 pM | 2 pM | 16 pM | –
CCCCCCCCCCCCCCCC(=O)N[C@@H](CCC(=O)NCCCC[C@H](NC(=O)[C@H](CC(=O)O)NC(=O)[C@H](CO)NC(=O)[C@@H](NC(=O)[C@H](Cc1ccccc1)NC(=O)[C@@H](NC(=O)CNC(=O)[C@H](CCC(N)=O)NC(=O)CNC(=O)CCc1c[nH]cn1)[C@@H](C)O)[C@@H](C)O)C(=O)N[C@@H](CO)C(=O)N[C@@H](CCCCN)C(=O)N[C@@H](Cc1ccc(O)cc1)C(=O)N[C@@H](CC(C)C)C(=O)N[C@@H](CC(=O)O)C(=O)N[C@@H](CCC(=O)O)C(=O)N[C@@H](CCCNC(=N)N)C(=O)N[C@@H](C)C(=O)N[C@@H](C)C(=O)N[C@@H](CCC(N)=O)C(=O)N[C@@H](CC(=O)O)C(=O)N[C@@H](Cc1ccccc1)C(=O)N[C@H](C(=O)N[C@@H](CCC(N)=O)C(=O)N[C@@H](Cc1c[nH]c2ccccc12)C(=O)N[C@@H](CC(C)C)C(=O)N[C@@H](CC(C)C)C(=O)N[C@@H](CCC(=O)O)C(=O)NCC(=O)NCC(=O)N1CCC[C@H]1C(=O)N[C@@H](CO)C(=O)N[C@@H](CO)C(=O)NCC(=O)N[C@@H](C)C(=O)N1CCC[C@H]1C(=O)N1CCC[C@H]1C(=O)N1CCC[C@H]1C(=O)N[C@@H](CO)C(N)=O)C(C)C)C(=O)O [compound 31] (Desaminohistidyl-GQGTFTSDK([γGlu-Palmitoyl])SKYLDERAAQDFVQWLLEGGPSSGAPPPS-NH2) | 3 pM | 226 pM | 22 pM | –
CCCCCCCCCCCCCCCC(=O)N[C@@H](CCC(=O)NCCCC[C@H](NC(=O)[C@H](CC(=O)O)NC(=O)[C@H](CO)NC(=O)[C@@H](NC(=O)[C@H](Cc1ccccc1)NC(=O)[C@@H](NC(=O)CNC(=O)[C@H](CCC(N)=O)NC(=O)CN(C)C(=O)[C@@H](N)Cc1c[nH]cn1)[C@@H](C)O)[C@@H](C)O)C(=O)N[C@@H](CO)C(=O)N[C@@H](CCCCN)C(=O)N[C@@H](Cc1ccc(O)cc1)C(=O)N[C@@H](CC(C)C)C(=O)N[C@@H](CC(=O)O)C(=O)N[C@@H](CCC(=O)O)C(=O)N[C@@H](CCCNC(=N)N)C(=O)N[C@@H](C)C(=O)N[C@@H](C)C(=O)N[C@@H](CCC(N)=O)C(=O)N[C@@H](CC(=O)O)C(=O)N[C@@H](Cc1ccccc1)C(=O)N[C@H](C(=O)N[C@@H](CCC(N)=O)C(=O)N[C@@H](Cc1c[nH]c2ccccc12)C(=O)N[C@@H](CC(C)C)C(=O)N[C@@H](CC(C)C)C(=O)N[C@@H](CCC(=O)O)C(=O)NCC(=O)NCC(=O)N1CCC[C@H]1C(=O)N[C@@H](CO)C(=O)N[C@@H](CO)C(=O)NCC(=O)N[C@@H](C)C(=O)N1CCC[C@H]1C(=O)N1CCC[C@H]1C(=O)N1CCC[C@H]1C(=O)N[C@@H](CO)C(N)=O)C(C)C)C(=O)O [compound 28] (H-H[Sar]QGTFTSDK([γGlu-Palmitoyl])SKYLDERAAQDFVQWLLEGGPSSGAPPPS-NH2) | 2 pM | 81 pM | 22 pM | –
CCCCCCCCCCCCCCCC(=O)N[C@@H](CCC(=O)NCCCC[C@H](NC(=O)[C@H](CC(=O)O)NC(=O)[C@H](CO)NC(=O)[C@@H](NC(=O)[C@H](Cc1ccccc1)NC(=O)[C@@H](NC(=O)CNC(=O)[C@H](CCC(N)=O)NC(=O)[C@H](C)NC(=O)[C@@H](Cc1ccc(O)cc1)NC(C)=O)[C@@H](C)O)[C@@H](C)O)C(=O)N[C@@H](CO)C(=O)N[C@@H](CCCCN)C(=O)N[C@@H](Cc1ccc(O)cc1)C(=O)N[C@@H](CC(C)C)C(=O)N[C@@H](CC(=O)O)C(=O)N[C@@H](CCC(=O)O)C(=O)N[C@@H](CCCNC(=N)N)C(=O)N[C@@H](C)C(=O)N[C@@H](C)C(=O)N[C@@H](CCC(N)=O)C(=O)N[C@@H](CC(=O)O)C(=O)N[C@@H](Cc1ccccc1)C(=O)N[C@H](C(=O)N[C@@H](CCC(N)=O)C(=O)N[C@@H](Cc1c[nH]c2ccccc12)C(=O)N[C@@H](CC(C)C)C(=O)N[C@@H](CC(C)C)C(=O)N[C@@H](CC(=O)O)C(=O)N[C@@H](C)C(=O)NCC(=O)N1CCC[C@H]1C(=O)N[C@@H](CO)C(=O)N[C@@H](CO)C(=O)NCC(=O)N[C@@H](C)C(=O)N1CCC[C@H]1C(=O)N1CCC[C@H]1C(=O)N1CCC[C@H]1C(=O)N[C@@H](CO)C(N)=O)C(C)C)C(=O)O [compound 143] (Ac-[dY]AQGTFTSDK([γGlu-Palmitoyl])SKYLDERAAQDFVQWLLDAGPSSGAPPPS-NH2) | – | – | – | EC50 [1, 6]: 3 pM; EC50 [2, 6]: 3 pM; EC50 [3, 6]: 4 pM
CCCCCCCCCCCCCCCC(=O)N[C@@H](CCC(=O)NCCCC[C@H](NC(=O)[C@H](CC(=O)O)NC(=O)[C@H](CO)NC(=O)[C@@H](NC(=O)[C@H](Cc1ccccc1)NC(=O)[C@@H](NC(=O)CNC(=O)[C@H](CCC(N)=O)NC(=O)CNC(=O)[C@H](CCC(N)=O)NC(C)=O)[C@@H](C)O)[C@@H](C)O)C(=O)N[C@@H](CO)C(=O)N[C@@H](CCCCN)C(=O)N[C@@H](Cc1ccc(O)cc1)C(=O)N[C@@H](CC(C)C)C(=O)N[C@@H](CC(=O)O)C(=O)N[C@@H](CCC(=O)O)C(=O)N[C@@H](CCCNC(=N)N)C(=O)N[C@@H](C)C(=O)N[C@@H](C)C(=O)N[C@@H](CCC(N)=O)C(=O)N[C@@H](CC(=O)O)C(=O)N[C@@H](Cc1ccccc1)C(=O)N[C@H](C(=O)N[C@@H](CCC(N)=O)C(=O)N[C@@H](Cc1c[nH]c2ccccc12)C(=O)N[C@@H](CC(C)C)C(=O)N[C@@H](CC(C)C)C(=O)N[C@@H](CCC(=O)O)C(=O)NCC(=O)NCC(=O)N1CCC[C@H]1C(=O)N[C@@H](CO)C(=O)N[C@@H](CO)C(=O)NCC(=O)N[C@@H](C)C(=O)N1CCC[C@H]1C(=O)N1CCC[C@H]1C(=O)N1CCC[C@H]1C(=O)N[C@@H](CO)C(N)=O)C(C)C)C(=O)O [compound 34] (Ac-QGQGTFTSDK([γGlu-Palmitoyl])SKYLDERAAQDFVQWLLEGGPSSGAPPPS-NH2) | 611 pM | 436 pM | 163 pM | –
